# Assays:
# [1] = system: 2-Thiobarbituric Acid Reactive Substances (TBARS); assay: TBARS levels in mouse tongues; format: in vivo, ICR mice; conditions: 12 days after irradiation
# Description: (§1) The scoring of oral mucositis was based on a modification of the method of Sonis et al. To assess the severity of oral mucositis, mice were anesthetized with isoflurane every day. The oral mucositis score was: 0=normal; 1=partial hyperemia, erythema and swelling; 2=overall hyperemia, erythema and swelling; 3=epidermolysis, hyperemia and erythema; 4=extensive epidermolysis and bleeding; 5=bleeding and abscesses. Myeloperoxidase (MPO) activity is a marker for neutrophils in inflamed tissue. MPO activity was measured in mouse tongues using a modification of the method of Chen et al. After mice had been killed by cervical dislocation 12 days after irradiation, tongue samples (n=10 per group) were removed and stored at −70° C. until required for assay. […] MPO activity was measured using a Microplate Reader (NJ-2300; Biotec, Tokyo, Japan) at 450 nm. MPO activity was calculated by measuring the slope of absorbance calibrated using MPO standards (Wako Biochemicals) and expressed as MPO/g tongue. […] TBARS levels were measured using the Microplate Reader (Biotec) at 540 nm. TBARS levels were calculated by measuring the slope of absorbance calibrated using TBARS standards and expressed as TBARS/g tongue. […] The number of TUNEL-positive cells on the tongue tips were counted and expressed as a percentage. […] Data were analyzed using one-way analysis of variance (ANOVA) followed by the Steel-Dwass test. […]
# [2] = system: irradiated skin of pigs; assay: Gamma-radiation-induced dermatitis in mini-pigs, clinical skin reaction score; format: in vivo, Gottingen mini-pigs
# Description: Male Gottingen mini-pigs (mean weight, 19 kg; range, 18-20 kg; age, 6-7 months), obtained from Institute of Animal Breeding and Genetics, University of Gottingen, Germany, were used in these experiments. The mini-pigs were provided with tap water and commercial laboratory piglet chow from Purina Germany (Purina laboratory pig chow-5085) containing crude protein, fat, fiber, and ash, as well as calcium, phosphorus, and moisture (14.5, 4, 5, 8, 0.55, 1, and 14%, respectively). In addition, no antibiotic supplements were used. All animal experiments were performed in compliance to The German Animal Welfare Act.
# A formulation in accordance with embodiments of the present invention appropriate for topical administration was obtained by adding 200 mg of carbopol (Carbopol 934P; Lubrizol, USA) to 2.5 mL of distilled water and solubilizing 200 mg of 6OHM-6-HITC in 2 mL of ethanol. An appropriate amount of the ethanolic dispersion was transferred to the aqueous dispersion of carbopol. Methanol (1.25 mL) was mixed with 1 mL of ethanol and added to the 6OHM-6-HITC and carbopol mixture, which was gradually stirred, and carbopol was allowed to soak for 2 h. Triethanolamine (100 mg; Sigma-Aldrich, USA) was added to neutralize the carbopol solution and facilitate the formation of a gel, after which the pH was adjusted to 6.8. A vehicle cream was prepared using the same ingredients and identical methods as the cream, but 6OHM-6-HITC was omitted from the mixture. […] For topical treatment, 6OHM-6-HITC or the vehicle cream (concentration, 200 mg/cm^2) was spread on the irradiated skin of pigs twice daily for 35 days, and the first application was performed immediately after irradiation.
# To observe the effects of gamma-radiation on the skin of mini-pigs (3 animals per group), the dorsal skin was irradiated. […]
# The pigs were evaluated every week during the five weeks following the irradiation, and their skin reactions were scored using a clinical status scoring system. […]
# [3] = system: Myeloperoxidase (MPO); assay: Myeloperoxidase (MPO) activity in mouse tongues; format: in vivo, ICR mice; conditions: 12 days after irradiation
# Description: as §1
# [4] = system: mouse tongues; assay: TUNEL staining of tongue sections (apoptosis); format: in vivo, ICR mice; conditions: 12 days post-irradiation, control 23.7%
# Description: as §1
smiles,measurement,setting,value
COc1cc2c(CCCCN=C=S)c[nH]c2cc1O [6OHM-6-HITC],TBARS levels vs. control group,[1]; 30 mg/kg i.p.,lower
same,TBARS levels vs. control group,[1]; 300 mg/kg i.p.,significant decrease
same,clinical changes of irradiated skin vs. vehicle-treated,"[2]; 1 week after 50 Gy gamma irradiation, topical twice daily",similar
same,severity of skin reaction vs. vehicle-treated irradiation group,"[2]; 50 Gy gamma irradiation, topical twice daily for 35 days",decreased severity in the skin reaction
same,time at which beneficial effects on the dermatitis appeared,"[2]; after 50 Gy gamma irradiation, topical twice daily",2 weeks
same,MPO activity vs. control group,[3]; 30 mg/kg i.p.,significantly lower
same,MPO activity vs. control group,[3]; 300 mg/kg i.p.,significantly lower
same,percentage of TUNEL-positive cells,[4]; 30 mg/kg i.p.,9.9%
same,percentage of TUNEL-positive cells,[4]; 300 mg/kg i.p.,8.6%

# From patent US12178800B2, “Sulforaphane-melatonin-like compound” (priority 2018, dated 2024)
